Experimental data from patent US12594349B2, “Compositions and methods for the targeting of PCSK9” (Scribe Therapeutics Inc., priority 2022, dated 2026).

System: human PCSK9 locus
Test: Secreted PCSK9 by ELISA in Huh7 cells transfected with mRNA and gRNA
Format: cell-based
Conditions: Huh7 cells; for Secreted PCSK9: 6 days post-transfection, normalized to total cell count; for Percent reduction in PCSK9 secretion / Average percent reduction in PCSK9 secretion: LTRP5-ADD-ZIM3 mRNA; for Percent reduction in PCSK9 secretion: day 6, relative to non-targeting gRNA control; for Average percent reduction in PCSK9 secretion: day 6, averaged from the two doses
Method: To assess PCSK9 secretion, seeded Huh7 cells were transfected with mRNA encoding a catalytically-active CasX 676, dXR1, or LTRP5-ADD-ZIM3 and a gRNA with scaffold 316 and spacer targeting either the B2M or PCSK9 locus. Media supernatant was harvested at 6, 18, 36, and 87 days post-transfection to assess level of PCSK9 secretion by ELISA. Levels of PCSK9 secretion were normalized to total cell count. As an additional control, PCSK9 secretion was also measured in the media supernatant harvested from wells containing untreated, naïve cells.
The following three human hepatocyte cancer cell lines were used in this experiment: HepG2 cells, Hep3B cells, and Huh7 cells. ˜15,000 cells of each cell line were seeded per well; the next day, seeded cells were transfected with mRNA encoding a catalytically-active CasX 676, dXR1, or LTRP5-ADD-ZIM3 and a gRNA with scaffold 316 and spacer targeting either the B2M or PCSK9 locus (see Table 23 for specific spacers and sequences). Media supernatant was harvested at 4 days post-transfection to assess level of PCSK9 secretion by ELISA, and levels of PCSK9 secretion were normalized to total cell count and illustrated in FIGS. 11A-11C. Culturing of treated Huh7 cells continued, and media supernatant was harvested at 14 and 27 days post-transfection for measuring PCSK9 secretion by ELISA. As an additional experimental control, PCSK9 secretion was also measured in the media supernatant harvested from wells containing untreated, naïve cells.
To assess PCSK9 secretion, seeded Huh7 cells were co-transfected with mRNA encoding for LTRP5-ADD-ZIM3 and a gRNA with scaffold 316 and spacer targeting the PCSK9 locus using Lipofectamine™ 3000. Two doses of total RNA input at a 2:1 mass ratio of mRNA to gRNA were used for screening: 50 ng mRNA:25 ng gRNA and 25 ng mRNA:12.5 ng gRNA. Media supernatant was harvested at 6 days post-transfection to assess level of PCSK9 secretion by ELISA (Table 74). Levels of PCSK9 secretion were normalized to total cell count. As an additional control, PCSK9 secretion was also measured in the media supernatant harvested from cells transfected with mRNA encoding for mScarlet.

[1] = LTRP5-ADD-ZIM3 mRNA + gRNA scaffold 316, 25 ng mRNA:12.5 ng gRNA
[2] = LTRP5-ADD-ZIM3 mRNA + gRNA scaffold 316, 50 ng mRNA:25 ng gRNA

Substance	Secreted PCSK9 [1]	Secreted PCSK9 [2]	Percent reduction in PCSK9 secretion (25 ng mRNA:12.5 ng gRNA)	Percent reduction in PCSK9 secretion (50 ng mRNA:25 ng gRNA)	Average percent reduction in PCSK9 secretion
TG-06-128 (guide AGAAAUCAACUGGACAAGCA; listed as RNA, chemistry not given here)	62.29 ng/mL	42.21 ng/mL	12.57%	48.7%	30.63%
TG-06-153 (guide GUUAAUGUUUAAUCAGAUAG; listed as RNA, chemistry not given here)	86.58 ng/mL	73.23 ng/mL	21.52%	10.99%	5.27%
TG-06-129 (guide UUUUACACACCAUGUUCAAG; listed as RNA, chemistry not given here)	90.82 ng/mL	59.93 ng/mL	27.47%	27.16%	0.16%
TG-06-118 (guide GAGUGAAAUGGCCUGCUCUG; listed as RNA, chemistry not given here)	54.78 ng/mL	35.5 ng/mL	23.11%	56.86%	39.99%
TG-06-158 (guide GGAGCAGGGCGCGUGAAGGG; listed as RNA, chemistry not given here)	31.72 ng/mL	9.39 ng/mL	55.48%	88.59%	72.03%
TG-06-168 (guide GUGGGAAGGUUCGCGGGGUU; listed as RNA, chemistry not given here)	50.96 ng/mL	19.1 ng/mL	28.47%	76.78%	52.62%
TG-06-159 (guide GCGCGCCCCUUCACGCGCCC; listed as RNA, chemistry not given here)	80.84 ng/mL	53.15 ng/mL	13.47%	35.4%	10.97%
TG-06-131 (guide UGAACAUGGUGUGUAAAAGG; listed as RNA, chemistry not given here)	57.89 ng/mL	28.4 ng/mL	18.74%	65.48%	42.11%
TG-06-140 (guide AAACUUAGCCUGGACCCCCU; listed as RNA, chemistry not given here)	59.94 ng/mL	61.68 ng/mL	15.87%	25.04%	20.45%
TG-06-125 (guide AGAAAGAGCAAGCCUCAUGU; listed as RNA, chemistry not given here)	46.11 ng/mL	24.93 ng/mL	35.28%	69.7%	52.49%
TG-06-002 (guide ACCGCUGCGCCAAGGUGCGG; listed as RNA, chemistry not given here)				0.4%	
TG-06-126 (guide CCUUUUCAUCCUCCUGCCUG; listed as RNA, chemistry not given here)	44.82 ng/mL	23.48 ng/mL	37.09%	71.46%	54.27%
TG-06-123 (guide UCCCAGUAUCGACAGCCCUU; listed as RNA, chemistry not given here)	51.32 ng/mL	30.49 ng/mL	27.97%	62.95%	45.46%
